Assay results taken from PMC9822072, “Synthesis and Structure–Activity Relationship of 2,6-Disubstituted Thiosemicarbazone Derivatives of Pyridine as Potential Antituberculosis Agents” (Materials, 2023).
≈ marks a conversion by molar mass, not a printed value.

What follows are molecules tested on M. tuberculosis Spec. 210 (resistant strain isolated from TB patients) (assay: Tuberculostatic activity, twofold serial microdilution with Alamar Blue). Settings: Mycobacterium tuberculosis, 504 h, read-out: MIC Spec. 210.
Format: cell-based
In the case of NC(=NNC(=S)N1CCOCC1)c1cccc(N2CCCC2)n1 [Compound 4, N’-(Morpholine-4-Carbonothioyl)-6-(Pyrrolidin-1-Yl)Picolinohydrazonamide], the MIC is reported as 4 µg/mL (≈ 12 µM). NC(=NNC(=S)N1CCCC1)c1cccc(N2CCCC2)n1 [Compound 5, 6-(Pyrrolidin-1-Yl)-N’-(Pyrrolidine-1-Carbonothioyl)Picolinohydrazonamide] showed an MIC of 1 µg/mL (≈ 3.14 µM). NC(=NNC(=S)N1CCOCC1)c1cccc(N2CCCCC2)n1 [Compound 6, N’-(Morpholine-4-Carbonothioyl)-6-(Piperidin-1-Yl)Picolinohydrazonamide] was tested, and the MIC was 1 µg/mL (≈ 2.87 µM). Molecule NC(=NNC(=S)N1CCCC1)c1cccc(N2CCCCC2)n1 [Compound 7, 6-(Piperidin-1-Yl)-N’-(Pyrrolidine-1-Carbonothioyl)Picolinohydrazonamide] has an MIC of 0.5 µg/mL (≈ 1.5 µM). For NC(=NNC(=S)N1CCOCC1)c1cccc(Oc2ccccc2)n1 [Compound 8, N’-(Morpholine-4-Carbonothioyl)-6-Phenoxypicolinohydrazonamide], the MIC was 4 µg/mL (≈ 11.2 µM). Molecule NC(=NNC(=S)N1CCCC1)c1cccc(Oc2ccccc2)n1 [Compound 9, 6-Phenoxy-N’-(Pyrrolidine-1-Carbonothioyl)Picolinohydrazonamide] has an MIC of 4 µg/mL (≈ 11.7 µM). In the case of NNC(=O)c1ccncc1 [INH, isoniazid, reference compound], the MIC is reported as 8 µg/mL (≈ 58.3 µM).
